US6280760A, “Peptide-coated implants and methods for producing same” (Merck Patent Gesellschaft mit beschraenkter Haftung, priority 1997, dated 2001)
pEC50: −log10 of the molar value.

Tests used:
MC3T3 H1 osteoblasts [1] = assay: Adhesion of MC3T3 H1 osteoblasts to V4A stainless steel shaped articles coated with acrylate peptide 3; type: cell-based, mouse; conditions: for maximum adhesion rates: V4A stainless steel
Method: For testing the cell adhesion of osteoblasts to peptide-coated metal surfaces, V4A stainless steel shaped articles (7×7×1 mm^3) were provided with three different coating variants and in each case then coated in turn with RGD peptides. To do this, first the stainless steel shaped articles were incubated in an ultrasonic bath at 60° C. for 15 min for the purpose of cleaning, rinsed with demineralized water, incubated in acetone for 30 min, rinsed again with demineralized water and incubated at 60° C. for 24 hours for drying.
The stainless steel platelets were then coated by means of three variants:
The Kevloc® primer solution was thinly applied and incubated at room temperature for 3 min. Then the Kevloc® bond solution was likewise thinly applied and activated in a kiln at 180° C. for 20 min.
Since this coating variant directly makes available free acrylate radicals on the metal surface, it was then possible to directly covalently couple the acrylate peptide 3, types iiia, as was described in Example 3 for polymerized PMMA-bone cement.
The Siliseal® solution was thinly applied and dried at room temperature for 5 min. Then the Sililink solution was likewise thinly applied and activated in the kiln at 320° C. for 3 min.
To make available acrylate radicals on the coated metal surfaces, the pretreated stainless steel shaped articles were immersed in demineralized water heated to 75° C., adjusted to pH about 8.00 using NaOH. A 1% 3-methacryloxypropyltrimethoxysilane solution (Huls AG, Germany) was then metered in with strirring over a period of one hour until a pH of about 6.50 was achieved. The mixture was then stirred at 75° C. for one hour; the pH at this time was about 6.35.
The bonding of acrylate peptide 3, type iiia, was carried out as described in Example 3 for polymerized PMMA bone cement.
For this, the stainless steel shaped articles were immersed in demineralized water heated to 75° C., adjusted to pH about 8.00 using NaOH, and an AlCl3 solution was metered in with stirring over a period of two hours. Then a 5% sodium silicate solution was likewise metered in with stirring over two hours. In the following step, a 1% 3-methacryloxypropyltrimethoxysilane solution (Huls AG, Germany) was metered in with stirring in the course of one hour. The mixture was then stirred at 75° C. for one hour; the pH was at this time about 6.40.
After the stainless steel shaped articles had been coated with acrylate peptide 3, type iiia, by means of three different processes, the adhesion of osteoblasts of the line MC3T3 H1 was investigated. To do this, a procedure as described in Example 3 was used.

human platelets = assay: Adhesion of human platelets to PMMA bone cement shaped articles coated with cell-selective acrylate peptides; type: cell-based; conditions: for cell adhesion, calculated Abs (405 nm), platelets: first part experiment
From the text: (§1) The model used for material coating with RGD peptides of different cell selectivity to obtain implants having locally differentiated bioactive coating patterns which should stimulate the adhesion of different cell species was polymerized PMMA bone cement shaped articles. To these were covalently coupled two RGD peptides of different cell selectivity. In this case acrylate peptide 3, type iiia, having a selectivity for alphav beta3 -/alphav beta5 -integrin-bearing osteoblasts, and acrylate peptide 5, type iiia, having a selectivity for […] -positive platelets were bonded to the PMMA shaped articles as described for Example 3.
(§2) a. In the first part experiment, PMMA shaped articles were coated with the acrylate peptides 3 and 5 in concentrations in the coating solution of 100 μM, 10 μM and 1 μM in each case. These RGD peptide-coated materials were then inoculated in parallel with osteoblasts and platelets and their cell adhesion was determined.
(§3) MC3T3 H1 osteoblasts (350,000 cells/cm^2) and human platelets (50 million cells/cm^2) were in each case inoculated in parallel both onto acrylate peptide 3- and acrylate peptide 5-coated PMMA shaped articles and their cell adhesion was determined as described in Example 3.
Human platelets were prepared following the process of Shattil and Brass (J. Biol. Chem. 262:992-1000, 1987).
(§4) b. In the second part experiment, PMMA shaped articles were likewise coated with the acrylate peptides 3 and 5, but only in a concentration in the coating solution of 100 μM in each case. These RGD peptide-coated materials were then inoculated in parallel with osteoblasts, platelets or an osteoblast/platelet mixture and their cell adhesion was determined. MC3T3 H1 osteoblasts (350,000 cells/cm^2), human platelets (50 million cell/cm^2) and a cell mixture (350,000 osteoblasts/cm^2 […] 50 million platelets/cm^2) were in each case inoculated in parallel both onto acrylate peptide 3- and acrylate peptide 5-coated PMMA shaped articles and their cell adhesion was determined as described in Example 3.

MC3T3 H1 osteoblasts [2] = assay: Proliferation of MC3T3 H1 osteoblasts on RGD peptide-coated PMMA bone cement shaped articles (WST-1 test); type: cell-based, mouse
From the text: For the covalent coupling of acrylate peptide 3, type iiia, to polymerized PMMA bone cement shaped articles, a coating process which was described in Example 3 was selected.
MC3T3 H1 mouse osteoblasts were then adhered to these RGD peptide-coated bone cement shaped articles as likewise described in Example 3, but with two differences: 12,000 cells/cm^2 instead of 48,000 cells/cm^2 were inoculated and the adhesion time was two hours instead of one hour. Additionally, only three different peptide concentrations were investigated in the coating solution: 0.01 μM, 1 μM and 100 μM.
After washing off non-adherent cells, the MC3T3 H1 osteoblasts were cultured under 95% atmospheric humidity and 5% CO2 at 37° C. in serum-containing (10%) culture medium for a period of 15 days. During the course of this, the medium was changed twice per week and after 1, 2, 3, 4, 5, 10 and 15 days the cell count was determined by means of the WST-1 test by Boehringer Mannheim, Germany. In each case a typical exponential course of the cell proliferation of the cultured osteoblasts was seen here (FIG. 13). The maximally achieved cell count was directly dependent on the RGD peptide concentration in the coating solution. Thus after 15 culturing days per cm^2, about 1,000,000 cells (100 μM peptide), about 550,000 cells (1 μM peptide), about 300,000 cells (0.01 μM peptide) or about 230,000 cells were achieved (control without peptide). At the highest peptide concentration of 100 μM, an approximately 4- to 5-fold increase in the cell proliferation in comparison with uncoated samples was thus observed.

[3] = test system: osteoblasts/platelets mixture; assay: Adhesion of an osteoblast/platelet mixture to PMMA bone cement shaped articles coated with cell-selective acrylate peptides; type: cell-based, mouse, human; conditions: second part experiment; 100 μM peptide in the coating solution
Method: as §4

MC3T3 H1 osteoblasts [4] = assay: Adhesion of MC3T3 H1 osteoblasts to PMMA bone cement shaped articles coated with cell-selective acrylate peptides; type: cell-based, mouse; conditions: for cell adhesion, calculated Abs (405 nm), osteoblasts: first part experiment
From the text: as §1, §2, §3, §4

[5] = 1 μM peptide in the coating solution
[6] = 10 μM peptide in the coating solution
[7] = 100 μM peptide in the coating solution
[8] = second part experiment, 100 μM peptide in the coating solution

cyclo(RGDf[acrylic-ahx-tEG-K]) [acrylate peptide 3]
maximum adhesion rates (MC3T3 H1 osteoblasts [1]; Kevloc process): about 80% | maximum adhesion rates (MC3T3 H1 osteoblasts [1]; Silicoater process): about 80% | maximum adhesion rates (MC3T3 H1 osteoblasts [1]; pigment coating): about 60% | pEC50 (MC3T3 H1 osteoblasts [1]; all three coating variants, read-out: half-maximal cell bindings, RGD peptide concentration in the coating solution): 7.00 to 9.00 | cell adhesion, calculated Abs (405 nm), platelets (human platelets; [5]): about 0.2 Abs | cell adhesion, calculated Abs (405 nm), platelets (human platelets; [6]): about 1.5 Abs | cell adhesion, calculated Abs (405 nm), platelets (human platelets; [7]): about 3.0 Abs | cell adhesion, Abs, platelets alone (human platelets; [8]): about 3.0 Abs | cell count after 15 culturing days per cm^2 (MC3T3 H1 osteoblasts [2]; 0.01 μM peptide in the coating solution): about 300,000 cells | cell count after 15 culturing days per cm^2 (MC3T3 H1 osteoblasts [2]; [5]): about 550,000 cells | cell count after 15 culturing days per cm^2 (MC3T3 H1 osteoblasts [2]; [7]): about 1,000,000 cells | cell adhesion, Abs, osteoblasts/platelets inoculated as a mixture [3]: about 6.5 Abs | cell adhesion, calculated Abs (405 nm), osteoblasts (MC3T3 H1 osteoblasts [4]; [5]): about 1.8 Abs | cell adhesion, calculated Abs (405 nm), osteoblasts (MC3T3 H1 osteoblasts [4]; [6]): about 2.0 Abs | cell adhesion, calculated Abs (405 nm), osteoblasts (MC3T3 H1 osteoblasts [4]; [7]): about 6.0 Abs | cell adhesion, Abs, osteoblasts alone (MC3T3 H1 osteoblasts [4]; [8]): about 6.0 Abs
